Test results from publication PMC9968088, “Identification and Characterization of Three New Antimicrobial Peptides from the Marine Mollusk Nerita versicolor (Gmelin, 1791)” (International Journal of Molecular Sciences, 2023).
Ends that are not written are not given here.

How the values were obtained:
Details in all cases: 24 h
Pseudomonas aeruginosa = assay type: cell-based
Description: The OD 600 nm of an overnight culture of Pseudomonas aeruginosa was determined and adjusted to 0.1 in Mueller–Hinton broth and, afterwards, diluted 1:4. […] After a 24 h incubation at 37 °C and a 5% CO2 atmosphere, OD 600 nm was determined using a Tecan microplate reader M infinite 200. All tests were performed in triplicate.

C. parapsilosis = assay type: cell-based, Candida parapsilosis
Description: (§1) The antifungal activity was determined according to the “Clinical and Laboratory Standards Institute” guidelines M27-A3 broth microdilution assay with modifications (turbidimetric detection) [29, 31]. Based on the cell density measurements, the minimal inhibitory concentration (MIC) was derived from a Lambert–Pearson plot [32].

C. auris biofilm = assay type: cell-based, Candida auris
Description: (§2) Biofilms were basically formed and analyzed as described previously [31, 32, 33]. In brief, 2.5 × 10^3 yeast cells were seeded in 200 µL RPMI-1640 medium supplemented with L-glutamine in flat-bottomed, 96-well polystyrene microtiter plates (Sarstedt AG & Co. KG, Nümbrecht, Germany) and incubated at 37 °C without agitation for 24 h. The effect of the peptides on the biofilm formation was tested at different concentrations. […] Planktonic cells were removed with the supernatant, and the mature biofilms were washed twice with 200 µL water. Subsequently, the biofilms were stained with 200 µL of a 0.1% (w/v) crystal violet solution for 15 min. The supernatant was removed, and the biofilms were washed twice with 200 µL water to eliminate excess crystal violet. The stained biofilms were air dried for 24 h at 25 °C and finally destained using 200 µL of 30% acetic acid (15 min, 25 °C). The supernatant was transferred to a fresh 96-well plate, and the absorbance at 560 nm was measured using a Tecan infinite M200 microplate reader to quantify the biofilm biomass. The curve was fitted with a nonlinear regression with the dose-response nonlinear Hill equation.

C. albicans biofilm = assay type: cell-based, Candida albicans
Description: as §2

C. auris = assay type: cell-based, Candida auris
Description: as §1

C. parapsilosis biofilm = assay type: cell-based, Candida parapsilosis
Description: as §2

C. albicans = assay type: cell-based, Candida albicans
Description: as §1

KKKPTKK [Nv-p3]
MIC (Pseudomonas aeruginosa): >100 µg/mL
Antifungal Activity MIC (C. parapsilosis): ˃100 µg/mL
Antibiofilm Activity IC50 (C. auris biofilm): 57.5 µg/mL
Antibiofilm Activity IC50 (C. albicans biofilm): 57.5 µg/mL
Antifungal Activity MIC (C. auris): ˃100 µg/mL
Antibiofilm Activity IC50 (C. parapsilosis biofilm): 84.4 µg/mL
Antifungal Activity MIC (C. albicans): ˃100 µg/mL
